According to patent US9023789B2, “Amylin analogs and pharmaceutical compositions thereof” (Novo Nordisk A/S, priority 2012, dated 2015):
Numbered stars: 1 amine (or outer) side, 2 acyl side, 3 side chain; on linkers, the order of the positions; unused ones are H or OH. Bridge positions count the residues as written; N and C are the ends. Side chains are listed from the residue outwards. Peptide text beside a SMILES is read from it. * marks the point of attachment. C20 diacid = O=C(O)CCCCCCCCCCCCCCCCCCC(=O)*; γGlu = O=C(O)[C@H](CCC(=O)[*:2])N[*:1]

Experiments:
Male Wistar rats = assay: ASSAY (XII) effect from single subcutaneous administration on plasma calcium in rats; type: in vivo, rat; conditions: for Plasma calcium red (%) 0-12 h (maximal): single s.c., compared to vehicle; for suppression of plasma calcium level relative to vehicle: monitored over 24 hours
Method: Assay (XII)—Effect from Single Subcutaneous Administration of Analogue on Plasma Calcium in Rats
Male Wistar rats (Taconic Europe, ˜250 g at test date) were acclimatized to handling prior to the study. Rats were divided in groups of five and subcutaneously dosed with test compound at time=0. At time T=−15 min; 1 h, 2 h, 4 h, 7 h, 12 h, and 24 h a blood sample was obtained and heparin stabilized plasma was analysed for total calcium (Cobas, Hitachi). Data are illustrated in graphs as mean±SEM.

Male Sprague-Dawley rats = assay: ASSAY (XI) single subcutaneous administration, food intake monitored for 48 hours in rats; type: in vivo, rat; conditions: for Food intake red (%) 0-24 h / Food intake red (%) 24-48 h: single s.c., compared to vehicle; for food intake monitored over 48 hours: single subcutaneous administration, versus vehicle
Description: Assay (XI)—Effect from Single Subcutaneous Administration of Analogue on Plasma Calcium in Rats
Male Sprague-Dawley rats (Taconic Europe, ˜250 g at test date) were acclimatized to reversed day light cycle (lights on from 10 PM to 10 AM) and single housing in online food intake monitoring system (Ellegaard MBRose, Denmark) prior to study start. […] Data are illustrated in graphs as mean±SEM.

[1] = ASSAY (X) pK, determination of T½ in rat; type: in vivo; conditions: male, Sprague Dawley, plasma, iv, 20 nmol/kg
[2] = ASSAY (IX) pK, determination of T½ in mini-pig; type: in vivo; conditions: male, Göttingen, minipig, plasma, iv, 2 nmol/kg

half-life [1] [h] | Plasma calcium red (%) 0-12 h (maximal) (Male Wistar rats; 30 nmol/kg) [%] | SMILES | Food intake red (%) 0-24 h (Male Sprague-Dawley rats; 30 nmol/kg) [%] | Food intake red (%) 24-48 h (Male Sprague-Dawley rats; 30 nmol/kg) [%] | suppression of plasma calcium level relative to vehicle (Male Wistar rats; single subcutaneous 30 nmol/kg) | food intake monitored over 48 hours (Male Sprague-Dawley rats; 30 nmol/kg) | further results
28 | – | CC[C@H](C)[C@H](NC(=O)[C@H](C)NC(=O)CNC(=O)[C@H](Cc1ccccc1)NC(=O)[C@H](CC(N)=O)NC(=O)[C@@H]1CCCN1C(=O)[C@H](CO)NC(=O)[C@H](CO)NC(=O)[C@H](Cc1c[nH]cn1)NC(=O)[C@H](CCCNC(=N)N)NC(=O)[C@H](CC(C)C)NC(=O)[C@H](Cc1ccccc1)NC(=O)[C@H](CC(=O)O)NC(=O)[C@H](C)NC(=O)[C@H](CC(C)C)NC(=O)[C@H](CCCNC(=N)N)NC(=O)[C@H](CCC(N)=O)NC(=O)[C@@H](NC(=O)[C@H](C)NC(=O)[C@@H]1CSSC[C@H](NC(=O)[C@@H](N)CCCCNC(=O)CC[C@H](NC(=O)CC[C@H](NC(=O)CCCCCCCCCCCCCCCCCCC(=O)O)C(=O)O)C(=O)O)C(=O)N[C@@H](CC(N)=O)C(=O)N[C@@H]([C@@H](C)O)C(=O)N[C@@H](C)C(=O)N[C@@H]([C@@H](C)O)C(=O)N1)[C@@H](C)O)C(=O)N1CCC[C@H]1C(=O)N[C@@H](CO)C(=O)N[C@@H](CO)C(=O)N[C@H](C(=O)N[C@@H](CC(N)=O)C(=O)N[C@H](C(=O)NCC(=O)N[C@@H](CO)C(=O)N[C@@H](CC(=O)O)C(=O)N[C@H](C(=O)N[C@@H](Cc1ccc(O)cc1)C(N)=O)[C@@H](C)O)C(C)C)[C@@H](C)O [Example 2] (H-K([γGlu-γGlu-C20 diacid])CNTATCATQRLADFLRHSSPNFGAIPSSTNVGSDTY-NH2; disulfide 2-7; N-terminus assumed) | 72 | 62 | – | – | Plasma calcium red (%) 0-12 h (maximal) (Male Wistar rats; 100 nmol/kg): 9%; suppression of plasma calcium level relative to vehicle (Male Wistar rats; single subcutaneous 100 nmol/kg): does not trigger a notable suppression of the calcium level; Food intake red (%) 0-24 h (Male Sprague-Dawley rats; 3 nmol/kg): 39%; Food intake red (%) 24-48 h (Male Sprague-Dawley rats; 3 nmol/kg): 10%
3 | – | CC[C@H](C)[C@H](NC(=O)[C@H](C)NC(=O)CNC(=O)[C@H](Cc1ccccc1)NC(=O)[C@H](CC(N)=O)NC(=O)[C@@H]1CCCN1C(=O)[C@H](CO)NC(=O)[C@H](CO)NC(=O)[C@H](Cc1c[nH]cn1)NC(=O)[C@H](CCCNC(=N)N)NC(=O)[C@H](CC(C)C)NC(=O)[C@H](Cc1ccccc1)NC(=O)[C@H](CCCNC(=N)N)NC(=O)[C@H](C)NC(=O)[C@H](CC(C)C)NC(=O)[C@H](CCCNC(=N)N)NC(=O)[C@H](CCC(N)=O)NC(=O)[C@@H](NC(=O)[C@H](C)NC(=O)[C@@H]1CSSC[C@H](NC(=O)[C@@H](N)CCCCNC(=O)CC[C@H](NC(=O)CCCCCCCCCCCCCCCCCCC(=O)O)C(=O)O)C(=O)N[C@@H](CC(N)=O)C(=O)N[C@@H]([C@@H](C)O)C(=O)N[C@@H](C)C(=O)N[C@@H]([C@@H](C)O)C(=O)N1)[C@@H](C)O)C(=O)N1CCC[C@H]1C(=O)N[C@@H](CO)C(=O)N[C@@H](CO)C(=O)N[C@H](C(=O)N[C@@H](CC(N)=O)C(=O)N[C@H](C(=O)NCC(=O)N1CCC[C@H]1C(=O)N[C@@H](CC(N)=O)C(=O)N[C@H](C(=O)N[C@@H](Cc1ccc(O)cc1)C(N)=O)[C@@H](C)O)C(C)C)[C@@H](C)O [Example 65] (H-K([γGlu-C20 diacid])CNTATCATQRLARFLRHSSPNFGAIPSSTNVGPNTY-NH2; disulfide 2-7 (inferred); N-terminus assumed) | – | – | – | – | –
23 | 7 | CC[C@H](C)[C@H](NC(=O)[C@H](C)NC(=O)CNC(=O)[C@H](Cc1ccccc1)NC(=O)[C@H](CC(N)=O)NC(=O)[C@@H]1CCCN1C(=O)[C@H](CO)NC(=O)[C@H](CO)NC(=O)[C@H](Cc1c[nH]cn1)NC(=O)[C@H](CCCNC(=N)N)NC(=O)[C@H](CC(C)C)NC(=O)[C@H](Cc1ccccc1)NC(=O)[C@H](CCC(=O)O)NC(=O)[C@H](C)NC(=O)[C@H](CC(C)C)NC(=O)[C@H](CCCNC(=N)N)NC(=O)[C@H](CCC(N)=O)NC(=O)[C@@H](NC(=O)[C@H](C)NC(=O)[C@@H]1CSSC[C@H](NC(=O)[C@@H](N)CCCCNC(=O)CC[C@H](NC(=O)CC[C@H](NC(=O)CCCCCCCCCCCCCCCCCCC(=O)O)C(=O)O)C(=O)O)C(=O)N[C@@H](CC(N)=O)C(=O)N[C@@H]([C@@H](C)O)C(=O)N[C@@H](C)C(=O)N[C@@H]([C@@H](C)O)C(=O)N1)[C@@H](C)O)C(=O)N1CCC[C@H]1C(=O)N[C@@H](CO)C(=O)N[C@@H](CO)C(=O)N[C@H](C(=O)N[C@@H](CC(N)=O)C(=O)N[C@H](C(=O)NCC(=O)N[C@@H](CO)C(=O)N[C@@H](CCCNC(=N)N)C(=O)N[C@H](C(=O)N[C@@H](Cc1ccc(O)cc1)C(N)=O)[C@@H](C)O)C(C)C)[C@@H](C)O [Example 89] (H-K([γGlu-γGlu-C20 diacid])CNTATCATQRLAEFLRHSSPNFGAIPSSTNVGSRTY-NH2; disulfide 2-7 (inferred); N-terminus assumed) | 46 | 37 | None of the example compounds at 30 nmol/kg trigger a notable suppression of the calcium level | reduce food intake | suppression of plasma calcium level relative to vehicle (Male Wistar rats; single subcutaneous 1000 nmol/kg): induces a more pronounced suppression of the calcium level
7 | – | CC[C@H](C)[C@H](NC(=O)[C@H](C)NC(=O)CNC(=O)[C@H](Cc1ccccc1)NC(=O)[C@H](CC(N)=O)NC(=O)[C@@H]1CCCN1C(=O)[C@H](CO)NC(=O)[C@H](CO)NC(=O)[C@H](Cc1c[nH]cn1)NC(=O)[C@H](CCCNC(=N)N)NC(=O)[C@H](CC(C)C)NC(=O)[C@H](Cc1ccccc1)NC(=O)[C@H](Cc1c[nH]cn1)NC(=O)[C@H](C)NC(=O)[C@H](CC(C)C)NC(=O)[C@H](CCCNC(=N)N)NC(=O)[C@H](CCC(N)=O)NC(=O)[C@@H](NC(=O)[C@H](C)NC(=O)[C@@H]1CSSC[C@H](NC(=O)[C@@H](N)CCCCNC(=O)CC[C@H](NC(=O)CCCCCCCCCCCCCCCCCCC(=O)O)C(=O)O)C(=O)N[C@@H](CC(N)=O)C(=O)N[C@@H]([C@@H](C)O)C(=O)N[C@@H](C)C(=O)N[C@@H]([C@@H](C)O)C(=O)N1)[C@@H](C)O)C(=O)N1CCC[C@H]1C(=O)N[C@@H](CO)C(=O)N[C@@H](CO)C(=O)N[C@H](C(=O)N[C@@H](CC(N)=O)C(=O)N[C@H](C(=O)NCC(=O)N1CCC[C@H]1C(=O)N[C@@H](CC(N)=O)C(=O)N[C@H](C(=O)N[C@@H](Cc1ccc(O)cc1)C(N)=O)[C@@H](C)O)C(C)C)[C@@H](C)O [Example 67] (H-K([γGlu-C20 diacid])CNTATCATQRLAHFLRHSSPNFGAIPSSTNVGPNTY-NH2; disulfide 2-7 (inferred); N-terminus assumed) | – | – | – | – | –
– | – | CC[C@H](C)[C@H](NC(=O)[C@H](C)NC(=O)CNC(=O)[C@H](Cc1ccccc1)NC(=O)[C@H](CC(N)=O)NC(=O)[C@@H]1CCCN1C(=O)[C@H](CO)NC(=O)[C@H](CO)NC(=O)[C@H](Cc1c[nH]cn1)NC(=O)[C@H](CCCNC(=N)N)NC(=O)[C@H](CC(C)C)NC(=O)[C@H](Cc1ccccc1)NC(=O)[C@H](Cc1c[nH]cn1)NC(=O)[C@H](C)NC(=O)[C@H](CC(C)C)NC(=O)[C@H](CCCNC(=N)N)NC(=O)[C@H](CCC(N)=O)NC(=O)[C@@H](NC(=O)[C@H](C)NC(=O)[C@@H]1CSSC[C@H](NC(=O)[C@@H](N)CCCCNC(=O)CC[C@H](NC(=O)CCCCCCCCCCCCCCCCCCC(=O)O)C(=O)O)C(=O)N[C@@H](CC(N)=O)C(=O)N[C@@H]([C@@H](C)O)C(=O)N[C@@H](C)C(=O)N[C@@H]([C@@H](C)O)C(=O)N1)[C@@H](C)O)C(=O)N1CCC[C@H]1C(=O)N[C@@H](CO)C(=O)N[C@@H](CO)C(=O)N[C@H](C(=O)N[C@@H](CC(N)=O)C(=O)N[C@H](C(=O)NCC(=O)N[C@@H](CCCNC(=N)N)C(=O)N[C@@H](CC(N)=O)C(=O)N[C@H](C(=O)N[C@@H](Cc1ccc(O)cc1)C(N)=O)[C@@H](C)O)C(C)C)[C@@H](C)O [Example 85] (H-K([γGlu-C20 diacid])CNTATCATQRLAHFLRHSSPNFGAIPSSTNVGRNTY-NH2; disulfide 2-7 (inferred); N-terminus assumed) | – | – | – | – | half-life [2]: 85 h
14 | 8 | CC[C@H](C)[C@H](NC(=O)[C@H](C)NC(=O)CNC(=O)[C@H](Cc1ccccc1)NC(=O)[C@H](CC(N)=O)NC(=O)[C@@H]1CCCN1C(=O)[C@H](CO)NC(=O)[C@H](CO)NC(=O)[C@H](Cc1c[nH]cn1)NC(=O)[C@H](CCCNC(=N)N)NC(=O)[C@H](CC(C)C)NC(=O)[C@H](Cc1ccccc1)NC(=O)[C@H](CCC(=O)O)NC(=O)[C@H](C)NC(=O)[C@H](CC(C)C)NC(=O)[C@H](CCCNC(=N)N)NC(=O)[C@H](CCC(N)=O)NC(=O)[C@@H](NC(=O)[C@H](C)NC(=O)[C@@H]1CSSC[C@H](NC(=O)[C@@H](N)CCCCNC(=O)CC[C@H](NC(=O)CC[C@H](NC(=O)CCCCCCCCCCCCCCCCCCC(=O)O)C(=O)O)C(=O)O)C(=O)N[C@@H](CC(N)=O)C(=O)N[C@@H]([C@@H](C)O)C(=O)N[C@@H](C)C(=O)N[C@@H]([C@@H](C)O)C(=O)N1)[C@@H](C)O)C(=O)N1CCC[C@H]1C(=O)N[C@@H](CO)C(=O)N[C@@H](CO)C(=O)N[C@H](C(=O)N[C@@H](CC(N)=O)C(=O)N[C@H](C(=O)NCC(=O)N1CCC[C@H]1C(=O)N[C@@H](CCCNC(=N)N)C(=O)N[C@H](C(=O)N[C@@H](Cc1ccc(O)cc1)C(N)=O)[C@@H](C)O)C(C)C)[C@@H](C)O [Example 110] (H-K([γGlu-γGlu-C20 diacid])CNTATCATQRLAEFLRHSSPNFGAIPSSTNVGPRTY-NH2; disulfide 2-7) | 68 | 31 | None of the example compounds at 30 nmol/kg trigger a notable suppression of the calcium level | reduces food intake | –
